Toxic doses and inconclusive results are not listed. Rule as the data show it: active = T/C of 150% or more; inactive = T/C below 125%.
System: L1210 leukemia ip in BDF1 mice, survival T/C
Assay: NCI In Vivo Anticancer Drug Screen. Data for tumor model L1210 Leukemia (intraperitoneal) in B6D2F1 (BDF1) mice
Details: endpoint: mean survival time, higher = longer survival
Method in brief: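 Tumor was transplanted into mice, which were then dosed with test compound or vehicle alone. Survival was recorded for each group, and the treated figure was expressed relative to the control figure.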

[1] = dose: 100.0 mg/kg/injection, schedule: Q01DX009 (ip), vehicle: Klucel (hydroxypropylcellulose) (HPC)
[2] = dose: 100.0 mg/kg/injection, schedule: Q04DX003 (ip), vehicle: Klucel (hydroxypropylcellulose) (HPC)
[3] = dose: 200.0 mg/kg/injection, schedule: Q01DX009 (ip), vehicle: Klucel (hydroxypropylcellulose) (HPC)
[4] = dose: 200.0 mg/kg/injection, schedule: Q04DX003 (ip), vehicle: Klucel (hydroxypropylcellulose) (HPC)
[5] = dose: 400.0 mg/kg/injection, schedule: Q01DX009 (ip), vehicle: Klucel (hydroxypropylcellulose) (HPC)
[6] = dose: 400.0 mg/kg/injection, schedule: Q04DX003 (ip), vehicle: Klucel (hydroxypropylcellulose) (HPC)
[7] = dose: 100.0 mg/kg/injection, schedule: Q01DX009 (ip), vehicle: saline with Tween-80
[8] = dose: 200.0 mg/kg/injection, schedule: Q01DX009 (ip), vehicle: saline with Tween-80
[9] = dose: 25.0 mg/kg/injection, schedule: Q01DX009 (ip), vehicle: saline
[10] = dose: 50.0 mg/kg/injection, schedule: Q01DX009 (ip), vehicle: saline
[11] = dose: 100.0 mg/kg/injection, schedule: Q01DX001 (ip), vehicle: saline with Tween-80
[12] = dose: 200.0 mg/kg/injection, schedule: Q01DX001 (ip), vehicle: saline with Tween-80
[13] = dose: 400.0 mg/kg/injection, schedule: Q01DX001 (ip), vehicle: saline with Tween-80
[14] = dose: 100.0 mg/kg/injection, schedule: Q01DX001 (ip), vehicle: carboxymethylcellulose (CMC)
[15] = dose: 200.0 mg/kg/injection, schedule: Q01DX001 (ip), vehicle: carboxymethylcellulose (CMC)
[16] = dose: 400.0 mg/kg/injection, schedule: Q01DX001 (ip), vehicle: carboxymethylcellulose (CMC)

Measured: T/C

COc1ccc(NC(=S)Nc2ccc(OC)cc2)cc1
inactive: [1] 101 % of control | [2] 103 % of control | [3] 105 % of control | [4] 103 % of control | [5] 92 % of control | [6] 94 % of control

NCc1c(Cl)c(Cl)c(CN)c(Cl)c1Cl
inactive: dose: 50.0 mg/kg/injection, schedule: Q01DX009 (ip), vehicle: saline with Tween-80 96 % of control | dose: 50.0 mg/kg/injection, schedule: Q04DX003 (ip), vehicle: saline with Tween-80 92 % of control | [7] 94 % of control | dose: 100.0 mg/kg/injection, schedule: Q04DX003 (ip), vehicle: saline with Tween-80 92 % of control | [8] 88 % of control | dose: 200.0 mg/kg/injection, schedule: Q04DX003 (ip), vehicle: saline with Tween-80 105 % of control

CCCCCCCCCCCCCC[N+](C)(C)CCCCCCCCCCCCCC
inactive: dose: 12.5 mg/kg/injection, schedule: Q01DX009 (ip), vehicle: saline 108 % of control | dose: 12.5 mg/kg/injection, schedule: Q04DX003 (ip), vehicle: saline 104 % of control | [9] 106 % of control | dose: 25.0 mg/kg/injection, schedule: Q04DX003 (ip), vehicle: saline 105 % of control | [10] 90 % of control | dose: 50.0 mg/kg/injection, schedule: Q04DX003 (ip), vehicle: saline 102 % of control

C#CC(=O)CCCCCCl
inactive: dose: 6.25 mg/kg/injection, schedule: Q01DX009 (sc), vehicle: olive oil, sesame oil, peanut oil 100 % of control | dose: 12.5 mg/kg/injection, schedule: Q01DX009 (sc), vehicle: olive oil, sesame oil, peanut oil 94 % of control | dose: 12.5 mg/kg/injection, schedule: Q04DX002 (sc), vehicle: olive oil, sesame oil, peanut oil 103 % of control | dose: 25.0 mg/kg/injection, schedule: Q01DX009 (sc), vehicle: olive oil, sesame oil, peanut oil 97 % of control | dose: 25.0 mg/kg/injection, schedule: Q04DX002 (sc), vehicle: olive oil, sesame oil, peanut oil 95 % of control

CCCCNCCC(SSSC(CCNCCCC)c1ccc(Cl)cc1)c1ccc(Cl)cc1 (stereo unspecified)
inactive: dose: 6.25 mg/kg/injection, schedule: Q04DX003 (ip), vehicle: saline with Tween-80 103 % of control | dose: 12.5 mg/kg/injection, schedule: Q04DX003 (ip), vehicle: saline with Tween-80 88 % of control | dose: 25.0 mg/kg/injection, schedule: Q04DX003 (ip), vehicle: saline with Tween-80 91 % of control

c1cnc[c]([Hg][c]2cccnc2)c1
inactive: dose: 12.5 mg/kg/injection, schedule: Q01DX009 (ip), vehicle: Klucel (hydroxypropylcellulose) (HPC) 91 % of control | dose: 12.5 mg/kg/injection, schedule: Q04DX002 (ip), vehicle: Klucel (hydroxypropylcellulose) (HPC) 98 % of control | dose: 25.0 mg/kg/injection, schedule: Q01DX009 (ip), vehicle: Klucel (hydroxypropylcellulose) (HPC) 88 % of control | dose: 25.0 mg/kg/injection, schedule: Q04DX002 (ip), vehicle: Klucel (hydroxypropylcellulose) (HPC) 98 % of control | dose: 50.0 mg/kg/injection, schedule: Q01DX009 (ip), vehicle: Klucel (hydroxypropylcellulose) (HPC) 95 % of control | dose: 50.0 mg/kg/injection, schedule: Q04DX002 (ip), vehicle: Klucel (hydroxypropylcellulose) (HPC) 103 % of control

O=[N+]([O-])c1ccc(CCc2ccc([N+](=O)[O-])cc2)cc1
inactive: dose: 50.0 mg/kg/injection, schedule: Q01DX001 (ip), vehicle: other 91 % of control | dose: 100.0 mg/kg/injection, schedule: Q01DX001 (ip), vehicle: other 95 % of control | dose: 200.0 mg/kg/injection, schedule: Q01DX001 (ip), vehicle: other 97 % of control | dose: 400.0 mg/kg/injection, schedule: Q01DX001 (ip), vehicle: other 95 % of control

CCN(c1ccccc1)c1ccc([N+](=O)[O-])c2no[n+]([O-])c12
inactive: dose: 20.0 mg/kg/injection, schedule: Q04DX003 (ip), vehicle: saline with Tween-80 100 % of control | dose: 40.0 mg/kg/injection, schedule: Q04DX003 (ip), vehicle: saline with Tween-80 96 % of control

COC(=O)c1ccccc1N=NNc1ccc2c(=O)c3ccccc3[nH]c2c1
inactive: dose: 100.0 mg/kg/injection, schedule: Q04DX003 (ip), vehicle: saline 95 % of control | dose: 200.0 mg/kg/injection, schedule: Q04DX003 (ip), vehicle: saline 86 % of control | dose: 400.0 mg/kg/injection, schedule: Q04DX003 (ip), vehicle: saline 86 % of control

O=C(O)C1C(C(=O)O)C2(c3ccccc3)C(=O)C1(c1ccccc1)C(c1ccccc1)=C2c1ccccc1 (stereo unspecified)
inactive: [11] 89 % of control | [12] 110 % of control | [13] 100 % of control

CCCCCCCCNNC(=O)c1ccccc1
inactive: [14] 95 % of control | [15] 97 % of control | [16] 92 % of control

CC1(C)OC2C(CNS(C)(=O)=O)OC(n3cnc4c(N)ncnc43)C2O1 (stereo unspecified)
inactive: dose: 100.0 mg/kg/injection, schedule: Q01DX001 (ip), vehicle: saline 102 % of control | dose: 200.0 mg/kg/injection, schedule: Q01DX001 (ip), vehicle: saline 98 % of control | dose: 400.0 mg/kg/injection, schedule: Q01DX001 (ip), vehicle: saline 101 % of control

O=C(NNS(=O)(=O)c1ccc([N+](=O)[O-])cc1)c1ccccc1
inactive: [14] 105 % of control | [15] 102 % of control | [16] 100 % of control

CCOC(=O)c1cnc(SC)nc1Oc1ccccc1
inactive: [7] 101 % of control | [8] 106 % of control | dose: 400.0 mg/kg/injection, schedule: Q01DX009 (ip), vehicle: saline with Tween-80 98 % of control

CC(C)(C)C(=C=C=O)C#N
inactive: [11] 87 % of control | [12] 94 % of control | [13] 87 % of control

Cc1c2ccn(O)cc2cc2c1nc1ccccc12
inactive: dose: 18.75 mg/kg/injection, schedule: Q01DX009 (ip), vehicle: other 116 % of control | dose: 37.5 mg/kg/injection, schedule: Q01DX009 (ip), vehicle: other 114 % of control | dose: 75.0 mg/kg/injection, schedule: Q01DX009 (ip), vehicle: other 112 % of control | dose: 150.0 mg/kg/injection, schedule: Q01DX009 (ip), vehicle: other 110 % of control

C(=NC12CC3CC(CC(C3)C1)C2)c1ccccc1
inactive: [9] 106 % of control | [10] 97 % of control | dose: 200.0 mg/kg/injection, schedule: Q01DX009 (ip), vehicle: saline 100 % of control | dose: 400.0 mg/kg/injection, schedule: Q01DX009 (ip), vehicle: saline 104 % of control

O=C(O)/C=C/C(=O)c1ccccc1
inactive: dose: 50.0 mg/kg/injection, schedule: Q01DX001 (ip), vehicle: carboxymethylcellulose (CMC) 109 % of control

O=[N+]([O-])c1ccc(C[n+]2ccccc2)cc1
inactive: [10] 89 % of control

Cc1ccccc1-c1nc2ncnc(N)c2[nH]1
inactive: dose: 31.8 mg/kg/injection, schedule: Q01DX001 (ip), vehicle: Klucel (hydroxypropylcellulose) (HPC) 104 % of control | dose: 62.5 mg/kg/injection, schedule: Q01DX001 (ip), vehicle: Klucel (hydroxypropylcellulose) (HPC) 109 % of control | dose: 125.0 mg/kg/injection, schedule: Q01DX001 (ip), vehicle: Klucel (hydroxypropylcellulose) (HPC) 101 % of control

Cc1ccc(NC(=S)NC(Cc2ccccc2)c2ccccc2)c(C)c1 (stereo unspecified)
inactive: [1] 106 % of control | [2] 98 % of control | [3] 87 % of control | [4] 96 % of control | [5] 101 % of control | [6] 98 % of control

O=C(Nc1ccccc1C(=O)NC1CCCC1)NC1CCCC1
inactive: [2] 89 % of control | [4] 94 % of control

CC1OC(n2ccc(NC(=O)c3ccc(NC(=O)C(C)(N)CO)cc3)nc2=O)CCC1OC1OC(C)C(N(C)C)C(O)C1O (stereo unspecified)
inactive: [14] 106 % of control | [15] 100 % of control | [16] 106 % of control

O=C1CC2(C(=O)N1c1ccccc1)C1C(=O)N(c3ccccc3)C(=O)C1C1C3C(=CCC4C(=O)N(c5ccccc5)C(=O)C43)C=CN12 (stereo unspecified)
inactive: dose: 100.0 mg/kg/injection, schedule: Q04DX002 (ip), vehicle: saline with Tween-80 105 % of control | dose: 200.0 mg/kg/injection, schedule: Q04DX002 (ip), vehicle: saline with Tween-80 98 % of control | dose: 400.0 mg/kg/injection, schedule: Q04DX002 (ip), vehicle: saline with Tween-80 102 % of control

Reference: PubChem BioAssay AID248 (DTP/NCI, 2004)
